The text below walks through data of patent US9676714B2, “Sulfonylindole derivatives and method for preparing the same” (Daewoong Pharmaceutical Co., Ltd., priority 2013, dated 2017).

Each structure is given as a SMILES string. Structures can show the parent of a compound that is named as a salt.

T1 sequence (P19156 whole entry): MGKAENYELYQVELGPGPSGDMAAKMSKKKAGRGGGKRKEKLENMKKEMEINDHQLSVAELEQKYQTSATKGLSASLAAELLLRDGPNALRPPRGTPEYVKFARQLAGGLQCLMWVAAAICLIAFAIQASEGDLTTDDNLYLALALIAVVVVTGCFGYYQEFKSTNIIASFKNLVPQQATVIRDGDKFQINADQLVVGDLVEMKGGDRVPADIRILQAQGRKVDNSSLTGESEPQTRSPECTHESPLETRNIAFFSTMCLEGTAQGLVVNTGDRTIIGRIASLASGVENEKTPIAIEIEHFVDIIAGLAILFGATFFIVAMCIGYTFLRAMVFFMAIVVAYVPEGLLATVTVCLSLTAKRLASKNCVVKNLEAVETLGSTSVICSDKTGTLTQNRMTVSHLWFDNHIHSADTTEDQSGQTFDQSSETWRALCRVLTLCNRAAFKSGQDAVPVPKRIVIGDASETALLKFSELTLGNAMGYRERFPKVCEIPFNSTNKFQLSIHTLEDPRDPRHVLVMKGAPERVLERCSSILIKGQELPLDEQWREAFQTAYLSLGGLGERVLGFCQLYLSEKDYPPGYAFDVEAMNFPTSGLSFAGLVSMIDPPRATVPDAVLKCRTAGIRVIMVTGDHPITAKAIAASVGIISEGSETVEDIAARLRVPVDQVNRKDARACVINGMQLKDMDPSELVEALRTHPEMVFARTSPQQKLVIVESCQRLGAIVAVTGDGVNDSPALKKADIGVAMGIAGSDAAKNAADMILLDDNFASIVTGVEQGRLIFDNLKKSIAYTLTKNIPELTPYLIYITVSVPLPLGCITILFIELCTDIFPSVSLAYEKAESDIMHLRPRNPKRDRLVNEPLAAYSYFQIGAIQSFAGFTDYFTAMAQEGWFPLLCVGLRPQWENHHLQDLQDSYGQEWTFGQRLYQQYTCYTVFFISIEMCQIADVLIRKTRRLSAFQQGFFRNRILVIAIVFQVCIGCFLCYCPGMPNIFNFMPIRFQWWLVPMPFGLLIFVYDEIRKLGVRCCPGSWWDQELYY
T1 sequence (P18434 whole entry partner): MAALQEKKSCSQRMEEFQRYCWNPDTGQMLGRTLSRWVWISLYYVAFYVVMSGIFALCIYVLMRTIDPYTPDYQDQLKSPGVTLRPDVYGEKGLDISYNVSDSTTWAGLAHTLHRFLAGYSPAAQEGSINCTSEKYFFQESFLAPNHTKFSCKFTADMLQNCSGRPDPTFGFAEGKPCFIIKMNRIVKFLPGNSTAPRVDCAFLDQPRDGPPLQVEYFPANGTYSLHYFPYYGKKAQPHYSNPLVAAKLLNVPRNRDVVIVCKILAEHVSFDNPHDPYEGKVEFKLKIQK

This experiment addresses T1, proton pump (H+/K+-ATPase) (Sus scrofa, UniProt P19156).
T1 construct: Gastric vesicles were prepared from hog stomach via centrifugal separation; from tissue; host or cells: hog stomach (gastric vesicles, method of Rabon et al. 1988)
Nature of the experiment: Measurement of inhibitory effects on proton pump (H+/K+-ATPase) activities. The note with it: hog gastric vesicles, K+-specific H+/K+-ATPase activity, Tris-HCl buffer pH 7.4, 37° C. for 40 minutes, malachite green Pi readout. Format: biochemical. In outline: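 Hog gastric vesicles in 60 mmol/l Tris-HCl pH 7.4 with 0.5% DMSO were treated with compounds at room temperature; reaction was started with 10 μl of 10 mmol/l ATP stock. Released Pi was read at 570 nm, K+-specific activity taken as the ±K+ difference. IC50 from 4-parameter logistic fit.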
As a reminder, the IC50 is the point on the concentration scale where inhibition reaches its midpoint. For the compound `CNCc1cn(S(=O)(=O)c2cccc(C(F)(F)F)c2)c2cc(Nc3ccc(C)c(F)c3F)ccc12` [Example 191, N-(2,3-difluoro-4-methylphenyl)-3-((methylamino)methyl)-1-((3-(trifluoromethyl)phenyl)sulfonyl)-1H-indol-6-amine hydrochloride], 70 nM corresponded to half-maximal inhibition (IC50). This lies in the double-digit nanomolar range. `CNCc1cn(S(=O)(=O)c2ccc(C)cc2)c2cc(Nc3ccc(C)cc3F)ccc12` [Example 229, N-(2-fluoro-4-methylphenyl)-3-((methylamino)methyl)-1-tosyl-1H-indol-6-amine hydrochloride] came in with an IC50 of 1110 nM. For `CNCc1cn(S(=O)(=O)c2ccc(OC(F)F)cc2)c2cc(Cc3ccc(OC)nc3Cl)ccc12` [Example 298, 1-(6-((2-chloro-6-methoxypyridin-3-yl)methyl)-1-((4-(difluoromethoxy)phenyl)sulfonyl)-1H-indol-3-yl)-N-methylmethanamine] the value was 3600 nM; for `CNCc1cn(S(=O)(=O)c2ccc(C(C)(C)C)cc2)c2cc(Nc3ccc(C)cc3F)ccc12` [Example 231, 1-((4-(tert-butyl)phenyl)sulfonyl)-N-(2-fluoro-4-methylphenyl)-3-((methylamino)methyl)-1H-indol-6-amine hydrochloride], 2620 nM. Take `CNCc1cn(S(=O)(=O)c2cccc(C(F)(F)F)c2)c2cc(Nc3ccc(Cl)nc3Cl)ccc12` [Example 193, N-(2,6-dichloropyridin-3-yl)-3-((methylamino)methyl)-1-((3-(trifluoromethyl)phenyl)sulfonyl)-1H-indol-6-amine hydrochloride]: half-maximal inhibition (IC50) required 580 nM. Under `CNCc1cn(S(=O)(=O)c2cccc(F)c2)c2cc(Nc3ccc(C)cc3Cl)ncc12` [Example 353, N-(2-chloro-4-methylphenyl)-1-((3-fluorophenyl)sulfonyl)-3-((methylamino)methyl)-1H-pyrrolo[3,2-c]pyridin-6-amine hydrochloride] stands 830 nM; under `CNCc1cn(S(=O)(=O)c2cccnc2)c2cc(Nc3ccc(Cl)nc3C)ccc12` [Example 118, N-(6-chloro-2-methylpyridin-3-yl)-3-((methylamino)methyl)-1-(pyridin-3-ylsulfonyl)-1H-indol-6-amine hydrochloride], 480 nM; under `CNCc1cn(S(=O)(=O)c2cccc(F)c2)c2cc(Cc3ccc(C)cc3Cl)ccc12` [Example 299, 1-(6-(2-chloro-4-methylbenzyl)-1-((3-fluorophenyl)sulfonyl)-1H-indol-3-yl)-N-methylmethanamine], 270 nM. Under `CNCc1cn(S(=O)(=O)c2cccnc2)c2cc(Nc3ccnc(OC)c3Br)ccc12` [Example 131, N-(3-bromo-2-methoxypyridin-4-yl)-3-((methylamino)methyl)-1-(pyridin-3-ylsulfonyl)-1H-indol-6-amine hydrochloride] stands 780 nM. Under `CNCc1cn(S(=O)(=O)c2cccnc2)c2cc(Nc3ccnc(OC)c3Cl)ccc12` [Example 130, N-(3-chloro-2-methoxypyridin-4-yl)-3-((methylamino)methyl)-1-(pyridin-3-ylsulfonyl)-1H-indol-6-amine hydrochloride] stands 20000 nM. `CNCc1cn(S(=O)(=O)c2cccnc2)c2cc(-c3ccc(N)cc3)ccc12` [Example 246, 4-(3-((methylamino)methyl)-1-(pyridin-3-ylsulfonyl)-1H-indol-6-yl)aniline] returned an IC50 of 530 nM. For `CNCc1cn(S(=O)(=O)c2cccnc2)c2cc(Nc3ccc(C)nc3F)ccc12` [Example 112, N-(2-fluoro-6-methylpyridin-3-yl)-3-((methylamino)methyl)-1-(pyridin-3-ylsulfonyl)-1H-indol-6-amine hydrochloride] the value was 950 nM; for `CNCc1cn(S(=O)(=O)c2cccnc2)c2cc(Nc3ccc(Cl)cc3Cl)cnc12` [Example 349, N-(2,4-dichlorophenyl)-3-((methylamino)methyl)-1-(pyridin-3-ylsulfonyl)-1H-pyrrolo[3,2-b]pyridin-6-amine hydrochloride], 280 nM. Compound `CNCc1cn(S(=O)(=O)c2cccnc2)c2cc(Nc3ccc(OC)cc3F)ccc12` [Example 49, N-(2-fluoro-4-methoxyphenyl)-3-((methylamino)methyl)-1-(pyridin-3-ylsulfonyl)-1H-indol-6-amine hydrochloride] came in with an IC50 of 320 nM. Under `Cc1cc(OC(F)(F)F)ccc1Nc1ccc2c(C(=O)N(C)C)cn(S(=O)(=O)c3cccnc3)c2c1` [Example 326, N,N-dimethyl-6-((2-methyl-4-(trifluoromethoxy)phenyl)amino)-1-(pyridin-3-ylsulfonyl)-1H-indol-3-carboxamide] stands 37000 nM; under `CNCc1cn(S(=O)(=O)c2cccnc2)c2cc(Nc3ccc4ncccc4c3)ccc12` [Example 135, N-3-((methylamino)methyl)-1-(pyridin-3-ylsulfonyl)-1H-indol-6-yl)quinolin-6-amine hydrochloride], 3000 nM. Under `CNCc1cn(S(=O)(=O)c2cccnc2)c2cc(Nc3cc(Cl)cnc3C)ccc12` [Example 126, N-(5-chloro-2-methylpyridin-3-yl)-3-((methylamino)methyl)-1-(pyridin-3-ylsulfonyl)-1H-indol-6-amine hydrochloride] stands 510 nM; under `CNCc1cn(S(=O)(=O)c2cncc(F)c2)c2cc(Nc3ccc(OC(F)(F)F)cc3Cl)ccc12` [Example 215, N-(2-chloro-4-(trifluoromethoxy)phenyl)-1-((5-fluoropyridin-3-yl)sulfonyl)-3-((methylamino)methyl)-1H-indol-6-amine hydrochloride], 820 nM; under `CNCc1cn(S(=O)(=O)c2cccc(OC)c2)c2cc(Nc3ccc(C)c(F)c3F)ccc12` [Example 170, N-(2,3-difluoro-4-methylphenyl)-1-((3-methoxyphenyl)sulfonyl)-3-((methylamino)methyl)-1H-indol-6-amine hydrochloride], 260 nM.

Compound `CNCc1cn(S(=O)(=O)c2cccnc2)c2cc(Nc3cccc(F)c3)ccc12` [Example 6, N-(3-fluorophenyl)-3-((methylamino)methyl)-1-(pyridin-3-ylsulfonyl)-1H-indol-6-amine hydrochloride] gave an IC50 of 1180 nM. For `CNCc1cn(S(=O)(=O)c2cccc(OC(F)(F)F)c2)c2cc(Nc3ccc(C)nc3Cl)ccc12` [Example 205, N-(2-chloro-6-methylpyridin-3-yl)-3-((methylamino)methyl)-1-((3-(trifluoromethoxy)phenyl)sulfonyl)-1H-indol-6-amine hydrochloride] the value was 1750 nM; for `CNCc1cn(S(=O)(=O)c2cccnc2)c2cc(Nc3ccc(F)c(C)c3C)ccc12` [Example 66, N-(4-fluoro-2,3-dimethylphenyl)-3-((methylamino)methyl)-1-(pyridin-3-ylsulfonyl)-1H-indol-6-amine hydrochloride], 270 nM; for `CNCc1cn(S(=O)(=O)c2cccnc2)c2cc(Nc3cc(F)c(F)cc3F)ccc12` [Example 74, 3-((methylamino)methyl)-1-(pyridin-3-ylsulfonyl)-N-(2,4,5-trifluorophenyl)-1H-indol-6-amine hydrochloride], 450 nM. Under `CNCc1cn(S(=O)(=O)c2cccc(Cl)c2Cl)c2cc(Nc3ccc(C)cc3F)ccc12` [Example 234, 1-((2,3-dichlorophenyl)sulfonyl)-N-(2-fluoro-4-methylphenyl)-3-((methylamino)methyl)-1H-indol-6-amine hydrochloride] stands 1470 nM; under `CCc1cccc(Nc2ccc3c(CNC)cn(S(=O)(=O)c4cccnc4)c3c2)c1` [Example 8, N-(3-ethylphenyl)-3-((methylamino)methyl)-1-(pyridin-3-ylsulfonyl)-1H-indol-6-amine hydrochloride], 170 nM. Under `CNCc1cn(S(=O)(=O)c2cccnc2)c2cc(Nc3ccc(F)nc3C)ccc12` [Example 116, N-(6-fluoro-2-methylpyridin-3-yl)-3-((methylamino)methyl)-1-(pyridin-3-ylsulfonyl)-1H-indol-6-amine hydrochloride] stands 1570 nM; under `CNCc1cn(S(=O)(=O)c2cccc(F)c2)c2cc(Nc3ccc(C)cc3Cl)ccc12` [Example 137, N-(2-chloro-4-methylphenyl)-1-((3-fluorophenyl)sulfonyl)-3-((methylamino)methyl)-1H-indol-6-amine hydrochloride], 60 nM; under `CNCc1cn(S(=O)(=O)c2cccnc2)c2cc(Nc3ccc(OC)cc3C(F)(F)F)ccc12` [Example 51, N-(4-methoxy-2-(trifluoromethyl)phenyl)-3-((methylamino)methyl)-1-(pyridin-3-ylsulfonyl)-1H-indol-6-amine hydrochloride], 1200 nM. In turn, `CNCc1cn(S(=O)(=O)c2cccnc2)c2cc(-c3ccc(OC)nc3)ccc12` [Example 248, 1-(6-(6-methoxypyridin-3-yl)-1-(pyridin-3-ylsulfonyl)-1H-indol-3-yl)-N-methylmethanamine] had an IC50 of 20000 nM. Under `CNC(=O)c1cn(S(=O)(=O)c2cccc(C(F)(F)F)c2)c2cc(Nc3ccc(OC)nc3Cl)ccc12` [Example 320, 6-((2-chloro-6-methoxypyridin-3-yl)amino)-N-methyl-1-((3-(trifluoromethyl)phenyl)sulfonyl)-1H-indol-3-carboxamide] stands 20000 nM; under `CNCc1cn(S(=O)(=O)c2cccnc2)c2cc(Nc3cc(F)c(F)cc3C)ccc12` [Example 73, N-(4,5-difluoro-2-methylphenyl)-3-((methylamino)methyl)-1-(pyridin-3-ylsulfonyl)-1H-indol-6-amine hydrochloride], 160 nM. Under `CNCc1cn(S(=O)(=O)c2cccnc2)c2cc(Nc3ccc(F)cc3C)ccc12` [Example 23, N-(4-fluoro-2-methylphenyl)-3-((methylamino)methyl)-1-(pyridin-3-ylsulfonyl)-1H-indol-6-amine hydrochloride] stands 220 nM.
